“And” between values parts separate entries of the source, which are not always exact repeats. Equal values may be shown once. “Also recorded” adds a separate entry of the source.
Columns and labels:
[1] = test system: scopolamine-induced amnesic mice; experiment: Modified Y-maze test; type: in vivo; details: for Unfamiliar arm exploration / cognitive deficit, modified Y-maze vs scopolamine-treated group: i.p. 1 h before, scopolamine 1 mg/kg, doses as in the sentence; for Fold lower effective dose than PNU-282987, modified Y-maze: mouse, in vivo; for Minimum effective dose, Modified Y-maze: scopolamine induced amnesia model, ICR mice, i.p.
Procedure: The modified Y-maze test was performed to evaluate spatial working memory. The experiment was divided into 3 sessions; (i) IND8 at 5, 10, and 50 μmol/kg or 1.5, 2.9, and 14.7 mg/kg doses, (ii) QND8 at 5, 10, and 50 μmol/kg or 1.4, 2.7, 13.5 mg/kg doses, and (iii) IND8 and QND8 at dose of 25 μmol/kg or 7.3 and 6.8 mg/kg, respectively and PNU-282987 at […] or 3, 10 mg/kg doses.
FIG. 21 illustrates the percentage of unfamiliar arm exploration in modified Y-maze of IND8 (FIG. 21A), QND8 (FIG. 21B), and IND8, QND8, PNU-282987 (FIG. 21C). IND8, QND8, PNU-282987, vehicle (15% Tween80, SH) and tacrine (TC) were injected 1 h and scopolamine (SC) 30 min before sample phase, respectively. Each mouse was placed at the end of one arm and allowed to access 2 arms of Y-maze for 5 min in sample phase. After a 30 min period, the mouse was allowed to explore 3 arms for 5 min. The number of entries for each arm was recorded and the percentage of unfamiliar arm exploration was calculated. Data represented in means±standard errors (SE).
Male ICR mice (6-weeks of age) were housed in 5 per cage with free access to food and tap water under 12 h light and dark cycle (light on 6:00 to 18:00) in a temperature and humidity controlled room. They were acclimated in a laboratory at least 7 days prior to starting experiments. The experimental protocols were approved by the Animal Care and Use Committee of KhonKaen University, Thailand.
Tacrine hydrochloride (Sigma-Aldrich, St. Louis, Mo.), PNU-282987 hydrochloride (Alamone, Jerusalem, Israel) and test compounds were prepared as suspensions by using 15% tween 80 in distilled water as a vehicle, whereas scopolamine hydrochloride (Sigma-Aldrich, St. Louis, Mo.) and methyllycaconitine citrate (MLA) (Abcam, Cambridge, England) were prepared as a solution by dissolving with 0.9% normal saline solution (NSS). All compounds were administered by intraperitoneal (i.p.) injection in the amount of 5 mL/kg. Test compounds were injected 1 h and scopolamine was administered 30 min before the experiments, whereas MLA was injected 5 min before the test compounds.
Amnesia was induced pharmacologically in mice via scopolamine injection (single dose) for 30 min prior to start the experiments. They were divided into vehicle group: receiving 15% tween 80 and 0.9% NSS, amnesia group: receiving scopolamine 1 mg/kg, standard positive control group receiving tacrine 1 mg/kg, and test group: receiving IND8, QND8 at dose 5, 10, 25, 50 μmol/kg, or PNU-282987 3, 10 mg/kg, single dose. All mice were acclimated in an experimental room at least 30 min before the experiments.
The maze in this experiment is the same apparatus using in locomotor activity test except there is the black partition to close one of three arms. The mice were randomly separated into different treatment groups. They were injected with test compounds and scopolamine at 1 h and 30 min, respectively, before the sample phase. In this phase which one arm of Y-maze was closed by the black partition, each mouse was placed at the end of one arm and allowed to move through 2 arms for 5 min to get familiar with the two opened arms. After 30 min of resting, all arms were opened and the mouse was allowed to move freely through all 3 arms. The maze area and the partition were cleaned with 70% ethanol between each experiment to remove olfactory cues. The number of entries in each arm was counted visually if mice accessed into each arm at least 10 cm. The percentage of unfamiliar arm exploration was calculated as following equation: […]

[2] = test system: physiologically induced amnesia mice; experiment: ORT time delay with MLA pretreatment (mechanism of action); type: in vivo; details: MLA 3 mg/kg 5 min before test compound 10 μmol/kg
Procedure: Methyllycaconitine (MLA) was injected to block the α7-nAChR agonist response. The ORT in natural memory loss mice described above was the study model. […] Each mouse was allowed to explore an open field apparatus for 5 min in a habituation phase. After 24 hours, MLA (3 mg/kg) was injected 5 min before injection of test compounds. After 1 h of injected test compounds, each mouse explored 2 identical objects in the sample phase for 5 min. On the next day, one of the objects was changed to a new one and the mouse was allowed to explore these objects for 5 min. The exploration time of these objects was recorded.
FIG. 30 illustrates discrimination index (TN−TF/TN+TF) of each compound in the test phase of ORT for proving mechanism of action.
For dose finding protocol, the mice were randomly divided into different treatment groups, a control group receiving a vehicle and tested groups receiving PNU-282987 at 3, 10 mg/kg, and IND8, QND8 for 10, 25 μmol/kg, single dose. They were allowed to freely explore the open field apparatus for 5 min for habituation in a day before the experiment (day 1). On the test day (day 2), the test compound was injected 1 h before the sample phase. In this phase, mice were placed in the apparatus to explore two identical objects. On the next day (day 3), one object was changed to a new one and mice were allowed to explore these objects for 5 min in the test phase. […] The exploration time of each object was recorded if the nose of mouse came within 3 cm or touched the objects. The discrimination index (DI) was calculated by using (TN−TF)/(TN+TF); TN and TF represented exploration time of new and familiar objects, respectively.

5HT3A receptors = molecular target: T1, 5HT3A receptors (Mus musculus, UniProt P23979); experiment: Intact cell competitive radioligand binding assay ([3H]-granisetron, SPA), LGIC-CNiFERs; details: >10 = did not pass initial screen at 10 μM; read-out: Kd ± SD, 5HT3A
T1 construct: expressed in transfected cells; host or cells: HEK293 cells co-expressing TN-XXL
T1 sequence (P23979 24-489): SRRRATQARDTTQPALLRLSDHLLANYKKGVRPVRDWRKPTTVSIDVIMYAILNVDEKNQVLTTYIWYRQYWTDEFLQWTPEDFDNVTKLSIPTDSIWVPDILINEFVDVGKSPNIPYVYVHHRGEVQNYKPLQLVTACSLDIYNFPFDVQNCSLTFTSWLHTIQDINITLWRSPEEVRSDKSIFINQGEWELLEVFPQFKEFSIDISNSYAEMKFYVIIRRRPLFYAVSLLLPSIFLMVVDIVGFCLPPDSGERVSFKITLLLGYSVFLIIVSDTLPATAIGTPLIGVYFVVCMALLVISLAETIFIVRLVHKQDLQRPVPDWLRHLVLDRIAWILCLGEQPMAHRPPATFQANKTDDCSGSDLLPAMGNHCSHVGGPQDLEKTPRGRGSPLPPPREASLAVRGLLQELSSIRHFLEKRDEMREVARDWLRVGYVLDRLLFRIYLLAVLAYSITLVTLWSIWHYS

| SMILES | Unfamiliar arm exploration / cognitive deficit, modified Y-maze vs scopolamine-treated group [1] | Fold lower effective dose than PNU-282987, modified Y-maze [1] | Minimum effective dose, Modified Y-maze [1] [µmol/kg] | Cognitive enhancement after MLA pretreatment, ORT time delay [2] | Kd (5HT3A receptors) |
| --- | --- | --- | --- | --- | --- |
| c1cc2cc(-c3cn(C4CN5CCC4CC5)nn3)ccc2[nH]1 (stereo not shown) [IND8, 5-((Quinuclid-3-yl)-1H-1,2,3-triazol-4-yl)-1H-indole] | reversed the cognitive deficit induced by scopolamine | seven-fold | 5 | complete abolition of the cognitive enhancement; also recorded: abolished by MLA | 50 nM and 52 nM |
| O=C(N[C@H]1CN2CCC1CC2)c1ccc(Cl)cc1 [PNU-282987, reference compound] |  |  | 33 | abolished by MLA | > 10000 nM |
| Oc1ccc(-c2cn(C3CN4CCC3CC4)nn2)cc1 (stereo not shown) [QND8, 3-(4-hydroxyphenyl-1,2,3-triazol-1-yl) quinuclidine] | improved the cognitive deficit significantly only at the 2.7 mg/kg dose | four-fold | 10 | complete abolition of the cognitive enhancement; also recorded: abolished by MLA | 540 ± 50 nM |

Reference: patent US20180244653A1, “SELECTIVE ALPHA-7 NICOTINIC RECEPTOR AGONISTS AND METHODS FOR MAKING AND USING THEM” (THE REGENTS OF THE UNIVERSITY OF CALIFORNIA, priority 2015, published 2018)
